Patent publication US11028051B2, “Tetrahydroquinoline-based bromodomain inhibitors” (St. Jude Children's Research Hospital, priority 2016, dated 2021)
pEC50, pKd: −log10 of the molar value. Read-outs that look alike come from different tables or passages of the source.

Assays:
BRD2-BD1 = BRD2-BD1 (Homo sapiens (Human), UniProt P25440); assay: competitive TR-FRET assay, BET-BD with acetylated peptide ligand; format: binding; conditions: read-out: EC50 (μM) BRD2(1)
Experimental: (§1) Inhibitor potency was determined using a competitive TR-FRET assay as detailed herein, measuring interaction of the respective BET-BD with an acetylated peptide ligand (Table 2).

BRD2-BD2 = BRD2-BD2 (Homo sapiens (Human), UniProt P25440); assay: as above; format: binding; conditions: read-out: EC50 (μM) BRD2(2)
Chain of BRD2-BD2 (P25440 344-453): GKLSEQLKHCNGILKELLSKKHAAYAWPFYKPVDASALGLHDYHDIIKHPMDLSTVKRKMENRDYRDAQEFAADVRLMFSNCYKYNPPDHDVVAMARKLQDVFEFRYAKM
Experimental: as §1

BRDT = BRDT (Homo sapiens, UniProt Q58F21); assay: as above; format: binding
Experimental: as §1

HDMB03 cells = assay: cell viability, CellTiter-Glo; format: cell-based, human; conditions: read-out: EC50 (μM) HDMB03
How it was run: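 Medulloblastoma cells grown as neurospheres in supplemented neurobasal medium and treated for 7 days; viability read by CellTiter-Glo luminescence. Log10-transformed signal normalized to negative and positive controls; median percent inhibition of triplicates fitted with a four-parameter log-logistic model.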

Loucy = assay: anti-proliferative activity; format: cell-based; conditions: Table 5
Experimental: (§2) After 7 days of treatment, an equal volume of CellTiter-Glo reagent (G7572, Promega) was added and the luminescence signal was measured using an automated Envision plate reader (Perkin-Elmer). Luminescence data were normalized by log10 transformation prior to calculating the percent inhibition using the following equation:
(§3) 100*(negative control mean −compound value)/(negative control mean −positive control mean).

NALM-16 = assay: anti-proliferative activity; format: cell-based; conditions: Table 5
Experimental: as §2, §3

SEM cells = assay: anti-proliferative activity; format: cell-based; conditions: Table 5
Experimental: as §2, §3

[1] = tested on: c-Myc expression in HDMB03 cells; assay: c-Myc expression inhibition, high content microscopy (HCM); format: cell-based, human; conditions: read-out: EC50 (μM) Myc-inhibition
Experimental: 3000 human G3 medulloblastoma or 2000 mouse SHH medulloblastoma cells per well were plated into 384-well plates (6007710, Perkin Elmer) in 30 μL of supplemented neurobasal medium using a Wellmate automated dispenser (Thermo Matrix). After 24 hours, 125 nl of compound was transferred via pin tool, resulting in a final drug concentration from 2 nM to 40 μM. 72 hours after adding the drug, the plates were fixed with 4% formaldehyde for 20 min. After fixation the cells were then washed 3 times with 75 μl of PBS. The cells were then permeabilized with 0.1% Triton-X 100 for 15 minutes at 25° C. and blocked using 1% BSA in PBS for 1 hour at 25° C. The primary antibody against c-Myc Ab (#9402, Cell Signaling) at a 1:400 dilution was diluted in 1% BSA in PBS. This mixture was added to each well before incubation overnight at 4° C. Each well was then washed 3 times with PBS using a Biotek ELX405 Select plate washer, and incubated for 1 hour at 25° C. with a solution containing 1/400 goat α-rabbit-Alexa-488 (4412S, Cell Signaling) and 1 μM Hoechst 33342 to detect nuclear material (H3570, Molecular Probes). Two images were captured of each well at 10× using a GE Healthcare InCell 6000 at 405 nM to detect nuclear staining and 488 nM to detect c-Myc. All data were analyzed using the multi-target analysis algorithm of the GE InCell Analyzer Workstation software. The number of nuclear objects in each well, as well as all nuclear measurements, was determined through nuclear masks over the Hoechst staining. C-Myc staining was then measured using top-hat segmentation in the entire cell.

BRD2(1) = BRD2(1) (Homo sapiens (Human), UniProt P25440); assay: BROMOscan KD determination; format: binding; conditions: Table 10
Chain of BRD2(1) (P25440 74-180): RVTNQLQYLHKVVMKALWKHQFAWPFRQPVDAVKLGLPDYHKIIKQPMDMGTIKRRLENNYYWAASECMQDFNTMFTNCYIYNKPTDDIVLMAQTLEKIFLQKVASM
How it was run: (§4)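 BROMOscan panel, ~42 bromodomains; single-point competition at 1 μM cpd vs control per bromodomain. KD determinations run as BROMOscan follow-up.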

BRD2(2) = BRD2(2) (Homo sapiens (Human), UniProt P25440); assay: BROMOscan KD determination; format: binding; conditions: BROMOscan, Table 10
Chain of BRD2(2) (P25440 344-453): as the sequence (P25440 344-453) above
How it was run: as §4

BRDT(1) = BRDT(1) (Homo sapiens (Human), UniProt Q58F21); assay: BROMOscan KD determination; format: binding; conditions: Table 10
How it was run: as §4

BRDT(2) = BRDT(2) (Homo sapiens (Human), UniProt Q58F21); assay: BROMOscan KD determination; format: binding; conditions: BROMOscan, Table 10
How it was run: as §4

BRD3(1) = BRD3(1) (Homo sapiens (Human), UniProt Q15059); assay: BROMOscan KD determination; format: binding; conditions: Table 10
Chain of BRD3(1) (Q15059 34-140): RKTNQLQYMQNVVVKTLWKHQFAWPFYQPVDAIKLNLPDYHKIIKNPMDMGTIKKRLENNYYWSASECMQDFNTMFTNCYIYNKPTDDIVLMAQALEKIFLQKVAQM
Excerpt: (§5) DiscoverX® can screen compounds against all ˜42 bromodomains (a service called BROMOscan) and perform follow-up KD determination. This service is considered the industrial standard for bromodomain inhibitor comparisons.

BRD3(2) = BRD3(2) (Homo sapiens (Human), UniProt Q15059); assay: BROMOscan KD determination; format: binding; conditions: BROMOscan, Table 10
Chain of BRD3(2) (Q15059 306-415): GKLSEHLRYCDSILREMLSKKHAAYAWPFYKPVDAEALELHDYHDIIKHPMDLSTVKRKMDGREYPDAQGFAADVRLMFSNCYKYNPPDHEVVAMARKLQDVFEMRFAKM
Excerpt: as §5

all ~42 bromodomains = assay: BROMOscan competitive binding experiment at a single concentration; conditions: 1 μM, FIG. 4
Excerpt: DiscoverX® can screen compounds against all ˜42 bromodomains (a service called BROMOscan) and perform follow-up KD determination. This service is considered the industrial standard for bromodomain inhibitor comparisons. […] Dots are symbolic of inhibition of the compound at this concentration; the larger the size of the dot, the greater the activity of the compound. […] Though these compounds are selective for the BET family, the selectivity within the BET family is poor. The results of a competitive binding experiment between compounds 19 (left), 41 (center), and 56 (right) (at a single concentration, 1 μM) and a control for each of the bromodomains are shown in FIG. 5.

Chain of BRD2-BD1 (P25440 74-180): as the sequence (P25440 74-180) above

Compound: CC(=O)N1c2ccc(-c3ccc(C(=O)O)cc3)cc2[C@H](Nc2ccc(Cl)cc2)C[C@@H]1C [GSK-726, IBET-726, reference compound]
- EC50 (BRD2-BD1; Table 4): 1 µM
- EC50 (BRD2-BD1; Table 6): 1.3 µM
- EC50 (BRD2-BD1; Table 8): 1.3 µM
- EC50 (BRD2-BD2; Table 4): 0.057 µM
- EC50 (BRD2-BD2; Table 6): 0.19 µM
- EC50 (BRD2-BD2; Table 8): 0.19 µM
- pEC50 (BRDT; Table 4, read-out: BRDT EC50): 5.28
- pEC50 (BRDT; Table 6, head names no target, BRDT by comparison with Table 4, read-out: EC50): 5.26
- pEC50 (BRDT; Table 8, head names no target, BRDT by comparison with Table 4, read-out: EC50): 5.26
- EC50 (HDMB03 cells; Table 5): 5.77 µM
- EC50 (HDMB03 cells; Table 7): 0.95 µM
- EC50 (HDMB03 cells; Table 9, cancer cell proliferation inhibition): 0.95 µM
- EC50 (Loucy): 0.33 µM
- EC50 (NALM-16): 0.23 µM
- EC50 (SEM cells): 0.02 µM
- EC50 ([1]; Table 5): 0.17 µM
- EC50 ([1]; Table 7): 1.5 µM
- EC50 ([1]; Table 9, c-Myc expression inhibition in HDMB03 cells): 1.5 µM
- pKd (BRD2(1)): 8.33
- pKd (BRD2(2)): 9.70
- pKd (BRDT(1)): 8.35
- pKd (BRDT(2)): 9.05
- pKd (BRD3(1)): 8.51
- pKd (BRD3(2)): 9.70
- activity across bromodomain families (all ~42 bromodomains): activity only versus the BET family
